# Data: article doi:10.1101/2025.07.20.665728 (bioRxiv, 2025)
# Biological target: T1, hMR1^R9H (Homo sapiens, UniProt Q95460, R31H)
# T1 construct: plasmids encoding for the extracellular domains of MR1, β2m, and the AF-7 TCRα and TCRβ chains; made in house; host or cells: Escherichia coli BL21(DE3), inclusion bodies
# Assay: In vitro refolding of MR1 R9H mutant with ligand
# Type: binding
# Description: We then tested the effect of the RF catabolites on the expression of two mutant versions of MR1 termed MR1^R9H ([Howson et al., 2020]) and MR1^K43A ([Reantragoon et al., 2013]). First, we tested the MR1^R9H mutant ([Howson et al., 2020]) which represents a rare, natural human polymorph. […] When C1R. […] Next, we tested sought to understand how the previously characterised Lys43A mutation affects ligand binding. […] While this is in line with the ability of these ligands to bind MR1, the reason for MR1^K43A cell surface accumulation is less clear. The most likely explanation is that these ligands bind ER-resident MR1^K43A, in line with our data using wild-type MR1; however, because the K43A mutation results in spontaneous MR1 surface egress, the presence of these stabilising ligands promotes enhanced trafficking and/or retention at the cell surface. We cannot rule out however that the ligands may also bind directly to surface MR1^K43A and slow down the recycling from cell surface.
# Escherichia coli BL21(DE3) cells were transformed with plasmids encoding for the extracellular domains of MR1, β2m, and the AF-7 TCRα and TCRβ chains ([Kjer-Nielsen et al., 2012]; [Patel et al., 2013]; [Wang et al., 2022a]). The proteins were then expressed, and the inclusion bodies were purified, cleaned, and used for refolding. […]
# T1 sequence (Q95460 23-302 R31H): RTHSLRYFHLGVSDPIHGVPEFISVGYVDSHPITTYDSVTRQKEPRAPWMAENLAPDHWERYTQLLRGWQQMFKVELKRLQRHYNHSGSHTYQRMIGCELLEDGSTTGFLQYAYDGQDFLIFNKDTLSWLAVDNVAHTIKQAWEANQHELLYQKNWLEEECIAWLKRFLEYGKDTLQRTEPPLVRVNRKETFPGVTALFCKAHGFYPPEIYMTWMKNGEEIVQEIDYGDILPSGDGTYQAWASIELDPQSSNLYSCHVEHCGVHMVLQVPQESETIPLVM
# T1 sequence (P61769 21-119 partner): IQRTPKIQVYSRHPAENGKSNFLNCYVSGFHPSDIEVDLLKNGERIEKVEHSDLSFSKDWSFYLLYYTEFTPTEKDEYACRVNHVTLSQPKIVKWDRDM
structure (smiles),measurement,value
"Cc1cc2nc3[nH]c(=O)[nH]c(=O)c3nc2cc1C [Lumichrome, 7,8-dimethylalloxazine]",refolding with hMR1^R9H in solution,did not refold
